In the OPERA property sets (Mansouri et al. 2018):
Converted amounts (≈) assume the structure as drawn.

details: not given

| Compound | logP |
| --- | --- |
| Clc1cc(Cl)c2c(c1Cl)Oc1ccccc1O2 | 6.35 |
| Clc1cccc2c1Oc1ccccc1O2 | 4.75 |
| Clc1c(Cl)c(Cl)c2c(c1Cl)Oc1ccccc1O2 | 6.6 |
| Clc1cc2c(cc1Cl)Oc1cc(Cl)c(Cl)cc1O2 | 6.8 |
| Clc1cc2c(cc1Cl)Oc1c(Cl)c(Cl)c(Cl)c(Cl)c1O2 | 7.8 |
| c1ccc2c(c1)Oc1ccccc1O2 | 4.3 |
| Clc1ccc2c(c1)Oc1c(Cl)c(Cl)c(Cl)c(Cl)c1O2 | 7.4 |
| Clc1ccc2c(c1)Oc1ccccc1O2 | 5 |
| Clc1ccc2c(c1)Oc1ccc(Cl)cc1O2 | 5.75 |
| Clc1c(Cl)c(Cl)c2c(c1Cl)Oc1c(Cl)c(Cl)c(Cl)c(Cl)c1O2 | 8.2 |
| Clc1cc2c(c(Cl)c1Cl)Oc1c(Cl)c(Cl)c(Cl)c(Cl)c1O2 | 8.2 |

same assay, conditions: 25 °C

| Compound | solubility [nM] |
| --- | --- |
| Clc1c(Cl)c(Cl)c2c(c1Cl)Oc1ccccc1O2 | 1.96 (≈ 0.63 ng/mL) |
| Clc1cc2c(cc1Cl)Oc1cc(Cl)c(Cl)cc1O2 | 0.621 (≈ 0.2 ng/mL) |
